# Source: US11345713B2, “Compounds as modulators of TLR2 signaling” (Neuropore Therapies, inc., priority 2018, dated 2022)
# Columns and labels:
# [1] = biological target: T1, human TLR2 (Pam3CSK4, TLR1/2 agonist) in HEK-Blue hTLR2 cells (Homo sapiens, UniProt O60603); assay: HEK-Blue hTLR2 antagonism assay (SEAP reporter) with Pam3CSK4 as agonist; format: cell-based; conditions: 2 h compound pre-incubation, approx. 3×EC50 Pam3CSK4, 18 h, SEAP OD 655 nm, background subtracted
# T1 construct: host or cells: HEK-Blue hTLR2 (HEK-293)
# Description: (§1) Synthetic diacylated lipoprotein (Pam2CSK4, TLR2/6 agonist) and synthetic triacylated lipoprotein (Pam3CSK4, TLR1/2 agonist) were obtained from InvivoGen and were dissolved in endotoxin-free water to a concentration 1 mg/mL, vortexed until complete solubilization, and stored in aliquots at −20° C. Prior to addition to cells, an aliquot of the dissolved ligand was vortexed shortly and then was diluted in medium to 25 ng/mL Pam2CSK4 or 1000 ng/mL Pam3CSK4. The EC50 of the agonists for each assay run was determined by using 3-fold dilutions of each agonist from the following starting concentrations: 5 ng/mL for Pam2CSK4, and 200 ng/mL for Pam3CSK4.
# (§2) Test compounds were solubilized fresh to 10-20 mM stocks in DMSO and sonicated for 5-10 minutes in a water bath sonicator. Serial dilutions were prepared in DMSO, and then diluted in medium. The final concentration of DMSO used in the assay was 1%.
# (§3) HEK-Blue hTLR2 reporter cells (InvivoGen) are HEK-293 cells stably expressing both the human TLR2 gene and a secreted embryonic alkaline phosphatase (SEAP) reporter construct downstream of NFκB promotor sites. HEK-Blue hTLR2 reporters were cultured according to manufacturer's protocol using Dulbecco's Modified Eagle Medium (DMEM; Gibco) containing 1× GlutaMax (Gibco), 10% heat-inactivated Fetal Bovine Serum (Gibco), Pen-Strep (50 U/mL penicillin, 50 μg/mL streptomycin, Gibco), 100 μg/mL Normocin (InvivoGen), and the selective antibiotic, 1× HEK-Blue Selection (InvivoGen). Quanti-Blue reagent (InvivoGen) for detection and quantification of secreted alkaline phosphatase was dissolved in 100 mL of endotoxin-free water, warmed to 37° C. for 30 minutes and then filtered using a 0.2 μm membrane.
# (§4) On day 1, 50 μL of each test compound dilution in duplicates or a vehicle control was added to each well of a 96-well plate followed by addition of 150 μL of HEK-Blue hTLR2 cell suspension (1×10^5 cells/well) and incubated at 37° C./5% CO2 for 2 h. Next, 50 μL of an approximate 3×EC50 concentration of each agonist (Pam2CSK4 or Pam3CSK4) was added to the wells containing test compounds or the vehicle control. The plates were then incubated at 37° C./5% CO2 for 18 h. For each assay run, non-treated HEK-Blue hTLR2 cells were treated with serial dilutions of agonists to determine EC50 values for the respective run.
# (§5) On day 2, secreted alkaline phosphatase (SEAP) activity was detected in cell culture supernatants. In brief, 20 μL was collected from each well and transferred to a 96-well plate. Next, 200 μL of Quanti-Blue detection reagent was added to each well. Plates were incubated at room temperature for 15 min and SEAP activity was assessed by spectrophotometer OD reading at 655 nm. […] The activities of the compounds against Pam2CSK4 and Pam3CSK4 are presented as IC50 values for the response from cells treated with agonists with the background signal subtracted.
# [2] = biological target: T2, human TLR2 (Pam2CSK4, TLR2/6 agonist) in HEK-Blue hTLR2 cells (Homo sapiens, UniProt O60603); assay: HEK-Blue hTLR2 antagonism assay (SEAP reporter) with Pam2CSK4 as agonist; format: cell-based; conditions: 2 h compound pre-incubation, approx. 3×EC50 Pam2CSK4, 18 h, SEAP OD 655 nm, background subtracted
# T2 construct: host or cells: HEK-Blue hTLR2 (HEK-293)
# Description: as §1, §2, §3, §4, §5
# T1 sequence (O60603 19-784 limits assumed): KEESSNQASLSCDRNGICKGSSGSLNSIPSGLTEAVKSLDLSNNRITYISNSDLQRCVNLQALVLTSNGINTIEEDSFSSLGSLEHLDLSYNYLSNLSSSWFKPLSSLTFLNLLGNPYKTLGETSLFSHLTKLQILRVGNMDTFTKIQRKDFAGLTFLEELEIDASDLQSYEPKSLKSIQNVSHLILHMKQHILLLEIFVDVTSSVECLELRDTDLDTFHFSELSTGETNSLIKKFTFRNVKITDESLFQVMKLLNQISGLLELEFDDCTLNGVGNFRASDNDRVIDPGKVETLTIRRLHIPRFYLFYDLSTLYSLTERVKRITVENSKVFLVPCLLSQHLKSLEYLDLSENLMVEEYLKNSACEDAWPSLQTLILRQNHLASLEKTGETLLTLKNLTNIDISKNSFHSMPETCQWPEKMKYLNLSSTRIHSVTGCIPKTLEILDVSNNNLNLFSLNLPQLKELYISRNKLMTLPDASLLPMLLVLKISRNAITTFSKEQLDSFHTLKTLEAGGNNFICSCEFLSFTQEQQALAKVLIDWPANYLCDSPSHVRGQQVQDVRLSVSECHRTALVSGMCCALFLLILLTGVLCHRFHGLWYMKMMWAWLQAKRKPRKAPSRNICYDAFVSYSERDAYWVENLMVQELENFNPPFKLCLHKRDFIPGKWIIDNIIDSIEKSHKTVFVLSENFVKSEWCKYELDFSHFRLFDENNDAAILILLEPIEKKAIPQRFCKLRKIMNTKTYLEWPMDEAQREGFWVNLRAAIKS
# T2 sequence (O60603 19-784 limits assumed): as above
IC50 [1],IC50 [2],SMILES
2.3 µM,2.5 µM,"COc1cc(/C=C/c2ccc(F)cc2F)cc(C=O)c1O [compound 6, (E)-5-(2,4-difluorostyryl)-2-hydroxy-3-methoxybenzaldehyde]"
3.2 µM,4 µM,"COc1cc(/C=C/c2cc(F)cc(F)c2)cc(C=O)c1O [compound 5, (E)-5-(3,5-difluorostyryl)-2-hydroxy-3-methoxybenzaldehyde]"
1.3 µM,1.6 µM,"O=Cc1cc(/C=C/c2ccc3c(c2)CCCO3)cc(F)c1O [compound 68, (E)-5-(2-(chroman-6-yl)vinyl)-3-fluoro-2-hydroxybenzaldehyde]"
16.4 µM,15.2 µM,"COc1cc(/C=C/c2ccncc2)cc(C=O)c1O [compound 25, (E)-2-hydroxy-3-methoxy-5-(2-(pyridin-4-yl)vinyl)benzaldehyde]"
2.1 µM,2 µM,"COc1cc(-c2cc3c(s2)CCN(CC2CC2)C3)cc(C=O)c1O [compound 17, 5-(5-(cyclopropylmethyl)-4,5,6,7-tetrahydrothieno[3,2-c]pyridin-2-yl)-2-hydroxy-3-methoxybenzaldehyde]"
3.6 µM,4.4 µM,"CC(C)(C)OC(=O)N1CCN(/N=C/c2cc(/C=C/c3ccc(N4CCCC4)cc3)cc(F)c2O)CC1 [compound 95, tert-butyl 4-(((E)-3-fluoro-2-hydroxy-5-((E)-4-(pyrrolidin-1-yl)styryl)benzylidene)amino)piperazine-1-carboxylate]"
0.3 µM,0.9 µM,"O=Cc1cc(/C=C/c2ccc(OCC3CC3)cc2)cc(F)c1O [compound 66, (E)-5-(4-(cyclopropylmethoxy)styryl)-3-fluoro-2-hydroxybenzaldehyde]"
0.9 µM,2.3 µM,"COc1cc(/C=C/c2ccc3c(c2)CCCN3C(=O)OC(C)(C)C)cc(C=O)c1O [compound 60, tert-butyl (E)-6-(3-formyl-4-hydroxy-5-methoxystyryl)-3,4-dihydroquinoline-1(2H)-carboxylate]"
29.8 µM,35.1 µM,"COc1cc(/C=C\c2ccc(N3CCOCC3)cc2)cc(C=O)c1O [compound 41, (Z)-2-hydroxy-3-methoxy-5-(4-morpholinostyryl)benzaldehyde]"
4 µM,5.5 µM,"COc1cc(/C=C/c2ccccc2)cc(C=O)c1O [compound 4, (E)-2-hydroxy-3-methoxy-5-styrylbenzaldehyde]"
> 100 µM,> 100 µM,"COc1cc(/C=C/c2ccc(N3CCCC3)cc2)cc(O)c1C=O [compound 52, (E)-2-hydroxy-6-methoxy-4-(4-(pyrrolidin-1-yl)styryl)benzaldehyde]"
4.1 µM,3.8 µM,"O=Cc1cc(/C=C/c2ccc(N3CCCC3)nc2)cc(F)c1O [compound 86, (E)-3-fluoro-2-hydroxy-5-(2-(6-(pyrrolidin-1-yl)pyridin-3-yl)vinyl)benzaldehyde]"
82.1 µM,30.6 µM,"Oc1c(F)cc(/C=C/c2ccc(N3CCCC3)cc2)cc1CNC1CC1 [compound 91, (E)-2-((cyclopropylamino)methyl)-6-fluoro-4-(4-(pyrrolidin-1-yl)styryl)phenol]"
13.2 µM,16.4 µM,"O=S(=O)(N/N=C/c1cc(/C=C/c2ccc(N3CCCC3)cc2)cc(F)c1O)c1ccccc1 [compound 81, N′-((E)-3-fluoro-2-hydroxy-5-((E)-4-(pyrrolidin-1-yl)styryl)benzylidene)benzenesulfonohydrazide]"
7 µM,6.3 µM,"COc1cc(-c2cc3c(s2)CCN(C(=O)C2CC2)C3)cc(C(=O)/C=C/c2ccccc2)c1O [compound 74, (E)-1-(5-(5-(cyclopropanecarbonyl)-4,5,6,7-tetrahydrothieno[3,2-c]pyridin-2-yl)-2-hydroxy-3-methoxyphenyl)-3-phenylprop-2-en-1-one]"
1.4 µM,2.9 µM,"Oc1c(F)cc(/C=C/c2ccc(N3CCCC3)cc2)cc1/C=N/N1CCOCC1 [compound 94, 2-fluoro-6-((E)-(morpholinoimino)methyl)-4-((E)-4-(pyrrolidin-1-yl)styryl)phenol]"

IC50 [1],IC50 [2],SMILES
1 µM,1.1 µM,"O=Cc1cc(/C=C/c2cccc(C(F)(F)F)c2)cc(F)c1O [compound 11, (E)-3-fluoro-2-hydroxy-5-(3-(trifluoromethyl)styryl)benzaldehyde]"
8.5 µM,5.4 µM,"OCc1cc(/C=C/c2ccc(N3CCCC3)cc2)cc(F)c1O [compound 90, (E)-2-fluoro-6-(hydroxymethyl)-4-(4-(pyrrolidin-1-yl)styryl)phenol]"
4.6 µM,4 µM,"COCCOc1ccc(/C=C/c2cc(C=O)c(O)c(OC)c2)cc1 [compound 54, (E)-2-hydroxy-3-methoxy-5-(4-(2-methoxyethoxy)styryl)benzaldehyde]"
0.4 µM,0.6 µM,"COc1cc(/C=C/c2ccc(-c3ccccc3)cc2)cc(C=O)c1O [compound 36, (E)-5-(2-([1,1′-biphenyl]-4-yl)vinyl)-2-hydroxy-3-methoxybenzaldehyde]"
10 µM,9.1 µM,"Cc1ccc(/C=C/c2cc(F)c(O)c(C=O)c2)cn1 [compound 29, (E)-3-fluoro-2-hydroxy-5-(2-(6-methylpyridin-3-yl)vinyl)benzaldehyde]"
4.8 µM,4.5 µM,"COc1cc(-c2cc3c(s2)CCN(C(=O)C2CC2)C3)cc(/C=C/C(=O)c2ccccc2)c1O [compound 73, (E)-3-(5-(5-(cyclopropanecarbonyl)-4,5,6,7-tetrahydrothieno[3,2-c]pyridin-2-yl)-2-hydroxy-3-methoxyphenyl)-1-phenylprop-2-en-1-one]"
0.6 µM,0.5 µM,"O=Cc1cc(/C=C/c2ccc(N3CCCC3)cc2)cc(F)c1O [Example 49a, (E)-3-fluoro-2-hydroxy-5-(4-(pyrrolidin-1-yl)styryl)benzaldehyde]"
40.7 µM,32.8 µM,"O=Cc1cc(/C=C\c2ccc(N3CCOCC3)cc2)cc(F)c1O [compound 43, (Z)-3-fluoro-2-hydroxy-5-(4-morpholinostyryl)benzaldehyde]"
6.4 µM,6.2 µM,"COc1cc(/C=C/C(=O)c2ccccc2)cc(C=O)c1O [compound 33, (E)-2-hydroxy-3-methoxy-5-(3-oxo-3-phenylprop-1-en-1-yl)benzaldehyde]"
0.5 µM,1.7 µM,"COc1cc(/C=C/c2ccc(OCC3CC3)cc2)cc(C=O)c1O [compound 65, (E)-5-(4-(cyclopropylmethoxy)styryl)-2-hydroxy-3-methoxybenzaldehyde]"
6.2 µM,7.9 µM,"COc1cc(/C=C/c2ccc(F)cc2)cc(C=O)c1O [compound 7, (E)-5-(4-fluorostyryl)-2-hydroxy-3-methoxybenzaldehyde]"
5 µM,4.4 µM,"COc1cc(C=Cc2ccc3c(c2)OCCO3)cc(C=O)c1O [compound 38, 5-(2-(2,3-dihydrobenzo[b][1,4]dioxin-6-yl)vinyl)-2-hydroxy-3-methoxybenzaldehyde]"
6 µM,4.4 µM,"Oc1c(F)cc(/C=C/c2ccc(N3CCCC3)cc2)cc1/C=N/Nc1ccccc1 [compound 79, 2-fluoro-6-((E)-(2-phenylhydrazono)methyl)-4-((E)-4-(pyrrolidin-1-yl)styryl)phenol]"
2.6 µM,4.1 µM,"O=Cc1cc(/C=C/c2ccc3ncccc3c2)cc(F)c1O [compound 59, (E)-3-fluoro-2-hydroxy-5-(2-(quinolin-6-yl)vinyl)benzaldehyde]"
0.9 µM,1.3 µM,"O=Cc1cc(/C=C/c2cccc(N3CCCC3)c2)cc(F)c1O [compound 47, (E)-3-fluoro-2-hydroxy-5-(3-(pyrrolidin-1-yl)styryl)benzaldehyde]"
